The test system of assay [1] is accumulation of galactitol in fibroblasts obtained from human skin. The assay can be described thus: Inhibition of accumulation of galactitol in fibroblasts. In kind it is cell-based. Particulars: Fibroblast, 48 h, 37° C., galactose 3 mg/ml. How it is done:
1.2 Inhibiting effect on accumulation of galactitol:
A test for evaluating this activity was made in vitro on fibroblasts obtained from human skin.
An experimental model culture was obtained by incubating the cells in the presence of a medium containing a high concentration of galactose (3 mg/ml) and the product under test, and measuring the accumulation of galactitol in the cells after a 48-hour incubation period at 37° C. The cells were then isolated, washed in physiological salt solution and treated with a water-ethanol solution. The medium was centrifuged and the supernatant liquid was lyophylized.
The galactitol in the resulting sample was determined by HPLC (=high pressure liquid chromatography) after derivatives had been obtained with phenyl isocyanate.
The proportion of proteins in the precipitate obtained during the previously-mentioned centrifuging was measured by the method of M. M. Bradford (Anal. Biochem., 72, 248-254 (1976)) and indicated the number of cells present in the sample.
The inhibiting effect of the tested product was expressed as a percentage inhibition of intracellular accumulation of galactitol compared with the controls.

Assay [2] has as its system accumulation of sorbitol in the crystalline lenses. The assay can be described thus: Inhibition of accumulation of sorbitol in crystalline lenses of diabetic rats. In kind it is in vivo, Sprague Dawley rats. On the procedure:
(§1) 2.1 Inhibition of accumulation of sorbitol in crystalline lenses and nerves of diabetic rats:
(§2) The effects of the products according to the invention on the proportion of plasma glucose and the accumulation of sorbitol in the crystalline lenses and sciatic nerves of rats made diabetic by streptozotocin were examined by the method of M. J. Peterson, et al (Metabolism, 28, 456-461 (1979)).
(§3) Fasted Sprague Dawley rats were made diabetic by intraperitoneal injection of streptozotocin (75 mg/kg). The product under test was orally administered at a dose of 25 mg/kg after 0, 7 and 24 hours. The rats were sacrificed 27 hours after induction of diabetes. The crystalline lenses and sciatic nerves were taken and preserved at -20° C. until analysed. The crystalline lenses and sciatic nerves were homogenized in water and the proteins were precipitated from ethanol. The precipitate was eliminated by centrifuging and the supernatant liquid was lyophylised. The sorbitol in the sample was determined by the method of B. Bjorkqvist (J. of Chromatograph, 218, 65-71 (1981)), adapted by A. Lenaers et al. (Arch. Intern. Physiol. Bioch., 91, B, 62-63 (1983)).
(§4) The sample was dissolved in pyridine containing galactitol as an internal standard. Derivatives were formed therefrom by phenylisocyanate during incubation for 1 hour at 60° C. The reaction was then stopped by adding methanol and the derivatives were separated and determined by HPLC.
(§5) The results are expressed as percentage inhibition of the accumulation of sorbitol, compared with the controls.

Assay [3] relates to accumulation of sorbitol in the sciatic nerves. The assay can be described thus: Inhibition of accumulation of sorbitol in sciatic nerves of diabetic rats. In kind it is in vivo, Sprague Dawley rats. The conditions noted are these: oral 25 mg/kg at 0, 7 and 24 h, sacrificed 27 h. On the procedure: as §1, §2, §3, §4, §5

Usually inhibition stands for how much of the control response was suppressed. Low values mean a weak effect, high ones a strong effect.

Compound `CCC(=O)OCN1C(=O)N(COC(=O)CC)C2(C1=O)c1ccccc1-c1ccccc12` [Compound 5, bis-(1',3'-propanoyloxymethyl)-spiro-[fluorene-9,4'-imidazolidine]-2',5'-dione] gave an inhibition at 100 µM in assay [1] (10^-4 M) of 91%. For the same compound, in assay [1] (10^-5 M), the inhibition at 10 µM is 56%. The same compound registered an inhibition at 1 µM in assay [1] (10^-6 M) of 24%. Moreover, in assay [2] (oral 25 mg/kg at 0, 7 and 24 h, sacrificed 27 h), the “Inhibition of accumulation of sorbitol in vivo, crystalline lenses” value is 74%. The “inhibition of accumulation of sorbitol in crystalline lenses and sciatic nerves (in words)” value in assay [2] (oral 25 mg/kg, lenses and sciatic nerves) was “particularly active”. Also, in assay [3], the “Inhibition of accumulation of sorbitol in vivo, in sciatic nerves” value is 81%.

Source of the values: US4853401A, “Spiro-hydantoins as aldose reductase inhibitors” (priority 1987, dated 1989).
